Results: the supplement of paper PMC10307832

Tests used:
Assay in all cases: relative viability (nuclei count vs DMSO), 5 days (fraction); higher = more cells survive
[1] = system: HCC-827
Outline: (§1)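 A single step with final 0.05% Triton X-100, 1% formaldehyde and 1 ug/ml Hoechst fixed the cells and stained nuclei 5 days after treatment. Lung cancer cell lines in 1536-well plates had been treated by pin tool the day after seeding with one drug alone or a fixed anchor-drug dose plus five library-drug doses (not always all listed) in √10 steps, and nuclei were counted on 4× images. Relative viability is the ratio of nuclei in treated wells to nuclei in vehicle wells, taken as the median of duplicate plates.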

[2] = system: EKVX
Outline: as §1

[3] = system: NCI-H358
Outline: as §1

[4] = system: NCI-H1651
Outline: as §1

[5] = system: NCI-H1975
Outline: as §1

[6] = system: COR-L23
Outline: as §1

[7] = system: NCI-H661
Outline: as §1

[8] = system: HCC-15
Outline: as §1

[9] = system: NCI-H2087
Outline: as §1

[10] = system: NCI-H727
Outline: as §1

[11] = system: LCLC-103H
Outline: as §1

[12] = system: COR-L 105
Outline: as §1

[13] = system: HCC-44
Outline: as §1

[14] = system: NCI-H520
Outline: as §1

[15] = system: UMC-11
Outline: as §1

[16] = system: EPLC-272H
Outline: as §1

[17] = system: NCI-H1792
Outline: as §1

[18] = system: NCI-H1437
Outline: as §1

[19] = system: 201T
Outline: as §1

[20] = system: NCI-H1650
Outline: as §1

[21] = system: NCI-H647
Outline: as §1

[22] = system: H3255
Outline: as §1

[23] = system: ABC-1
Outline: as §1

O=c1[nH]c2ccccc2n1C1CCN(CCCC(c2ccc(F)cc2)c2ccc(F)cc2)CC1 [Pimozide] + CC(=O)Nc1cccc(-n2c(=O)n(C3CC3)c(=O)c3c(Nc4ccc(I)cc4F)n(C)c(=O)c(C)c32)c1 [Trametinib] (partner 0.02 µM)
relative viability ([1]; first compound 0.253 µM): 0.538
relative viability ([1]; first compound 0.8 µM): 0.556
relative viability ([1]; first compound 2.53 µM): 0.532
relative viability ([1]; first compound 8 µM): 0.561
relative viability ([2]; first compound 0.253 µM): 0.294
relative viability ([2]; first compound 0.8 µM): 0.31
relative viability ([2]; first compound 2.53 µM): 0.344
relative viability ([2]; first compound 8 µM): 0.326
relative viability ([3]; first compound 0.08 µM): 0.135
relative viability ([3]; first compound 0.253 µM): 0.147
relative viability ([3]; first compound 0.8 µM): 0.137
relative viability ([3]; first compound 2.53 µM): 0.13
relative viability ([3]; first compound 8 µM): 0.126
relative viability ([4]; first compound 0.08 µM): 0.833
relative viability ([4]; first compound 0.253 µM): 0.79
relative viability ([4]; first compound 0.8 µM): 0.829
relative viability ([4]; first compound 2.53 µM): 0.82
relative viability ([4]; first compound 8 µM): 0.853
relative viability ([5]; first compound 0.08 µM): 0.273
relative viability ([5]; first compound 0.253 µM): 0.405
relative viability ([5]; first compound 0.8 µM): 0.363
relative viability ([5]; first compound 2.53 µM): 0.353
relative viability ([5]; first compound 8 µM): 0.227
relative viability ([6]; first compound 0.08 µM): 0.541
relative viability ([6]; first compound 0.253 µM): 0.596
relative viability ([6]; first compound 0.8 µM): 0.602
relative viability ([6]; first compound 2.53 µM): 0.629
relative viability ([6]; first compound 8 µM): 0.478
relative viability ([7]; first compound 0.08 µM): 0.598
relative viability ([7]; first compound 0.253 µM): 0.583
relative viability ([7]; first compound 0.8 µM): 0.498
relative viability ([7]; first compound 2.53 µM): 0.492
relative viability ([7]; first compound 8 µM): 0.409
relative viability ([8]; first compound 0.08 µM): 0.398
relative viability ([8]; first compound 0.253 µM): 0.355
relative viability ([8]; first compound 0.8 µM): 0.386
relative viability ([8]; first compound 2.53 µM): 0.358
relative viability ([8]; first compound 8 µM): 0.34
relative viability ([9]; first compound 0.08 µM): 0.243
relative viability ([9]; first compound 0.253 µM): 0.24
relative viability ([9]; first compound 2.53 µM): 0.179
relative viability ([9]; first compound 8 µM): 0.205
relative viability ([10]; first compound 0.08 µM): 0.396
relative viability ([10]; first compound 0.253 µM): 0.426
relative viability ([10]; first compound 0.8 µM): 0.383
relative viability ([10]; first compound 2.53 µM): 0.443
relative viability ([10]; first compound 8 µM): 0.403
relative viability ([11]; first compound 0.08 µM): 0.676
relative viability ([11]; first compound 0.253 µM): 0.656
relative viability ([11]; first compound 0.8 µM): 0.642
relative viability ([11]; first compound 2.53 µM): 0.631
relative viability ([11]; first compound 8 µM): 0.669
relative viability ([12]; first compound 0.08 µM): 0.399
relative viability ([12]; first compound 0.253 µM): 0.418
relative viability ([12]; first compound 0.8 µM): 0.425
relative viability ([12]; first compound 2.53 µM): 0.437
relative viability ([12]; first compound 8 µM): 0.779
relative viability ([13]; first compound 0.08 µM): 1.1
relative viability ([13]; first compound 0.253 µM): 1.18
relative viability ([13]; first compound 0.8 µM): 0.913
relative viability ([13]; first compound 2.53 µM): 0.979
relative viability ([13]; first compound 8 µM): 0.887
relative viability ([14]; first compound 0.08 µM): 0.632
relative viability ([14]; first compound 0.253 µM): 0.68
relative viability ([14]; first compound 0.8 µM): 0.627
relative viability ([14]; first compound 2.53 µM): 0.601
relative viability ([14]; first compound 8 µM): 0.54
relative viability ([15]; first compound 0.08 µM): 0.602
relative viability ([15]; first compound 0.253 µM): 0.675
relative viability ([15]; first compound 0.8 µM): 0.655
relative viability ([15]; first compound 2.53 µM): 0.681
relative viability ([15]; first compound 8 µM): 0.918
relative viability ([16]; first compound 0.08 µM): 0.282
relative viability ([16]; first compound 0.253 µM): 0.26
relative viability ([16]; first compound 0.8 µM): 0.27
relative viability ([16]; first compound 2.53 µM): 0.263
relative viability ([16]; first compound 8 µM): 0.233
relative viability ([17]; first compound 0.08 µM): 0.466
relative viability ([17]; first compound 0.253 µM): 0.412
relative viability ([17]; first compound 0.8 µM): 0.36
relative viability ([17]; first compound 2.53 µM): 0.393
relative viability ([17]; first compound 8 µM): 0.454
relative viability ([18]; first compound 0.08 µM): 0.652
relative viability ([18]; first compound 0.253 µM): 0.495
relative viability ([18]; first compound 0.8 µM): 0.441
relative viability ([18]; first compound 2.53 µM): 0.376
relative viability ([18]; first compound 8 µM): 0.412
relative viability ([19]; first compound 0.08 µM): 0.717
relative viability ([19]; first compound 0.253 µM): 0.726
relative viability ([19]; first compound 0.8 µM): 0.7
relative viability ([19]; first compound 2.53 µM): 0.732
relative viability ([19]; first compound 8 µM): 0.686
relative viability ([20]; first compound 0.08 µM): 0.625
relative viability ([20]; first compound 0.253 µM): 0.591
relative viability ([20]; first compound 0.8 µM): 0.516
relative viability ([20]; first compound 2.53 µM): 0.571
relative viability ([20]; first compound 8 µM): 0.718
relative viability ([21]; first compound 0.08 µM): 0.555
relative viability ([21]; first compound 0.253 µM): 0.491
relative viability ([21]; first compound 0.8 µM): 0.476
relative viability ([21]; first compound 2.53 µM): 0.316
relative viability ([21]; first compound 8 µM): 0.353
relative viability ([22]; first compound 0.253 µM): 0.577
relative viability ([22]; first compound 0.8 µM): 0.562
relative viability ([22]; first compound 2.53 µM): 0.564
relative viability ([22]; first compound 8 µM): 0.623

O=c1[nH]c2ccccc2n1C1CCN(CCCC(c2ccc(F)cc2)c2ccc(F)cc2)CC1 [Pimozide] + NC(=O)Nc1cc(-c2cccc(F)c2)sc1C(=O)N[C@H]1CCCNC1 [AZD7762] (partner 0.2 µM)
relative viability ([1]; first compound 0.253 µM): 0.2
relative viability ([1]; first compound 0.8 µM): 0.211
relative viability ([1]; first compound 2.53 µM): 0.236
relative viability ([1]; first compound 8 µM): 0.28
relative viability ([2]; first compound 0.253 µM): 0.711
relative viability ([2]; first compound 0.8 µM): 0.618
relative viability ([2]; first compound 2.53 µM): 0.749
relative viability ([2]; first compound 8 µM): 0.592
relative viability ([3]; first compound 0.08 µM): 0.565
relative viability ([3]; first compound 0.253 µM): 0.67
relative viability ([3]; first compound 0.8 µM): 0.625
relative viability ([3]; first compound 2.53 µM): 0.508
relative viability ([3]; first compound 8 µM): 0.505
relative viability ([4]; first compound 0.08 µM): 0.453
relative viability ([4]; first compound 0.253 µM): 0.423
relative viability ([4]; first compound 0.8 µM): 0.41
relative viability ([4]; first compound 2.53 µM): 0.433
relative viability ([4]; first compound 8 µM): 0.469
relative viability ([5]; first compound 0.08 µM): 0.691
relative viability ([5]; first compound 0.253 µM): 0.635
relative viability ([5]; first compound 0.8 µM): 0.684
relative viability ([5]; first compound 2.53 µM): 0.649
relative viability ([5]; first compound 8 µM): 0.766
relative viability ([8]; first compound 0.08 µM): 1.36
relative viability ([8]; first compound 0.253 µM): 0.545
relative viability ([8]; first compound 2.53 µM): 1.2
relative viability ([8]; first compound 8 µM): 1.16
relative viability ([9]; first compound 0.08 µM): 1.27
relative viability ([9]; first compound 0.253 µM): 1.31
relative viability ([9]; first compound 2.53 µM): 1.22
relative viability ([9]; first compound 8 µM): 1.25
relative viability ([10]; first compound 0.08 µM): 0.496
relative viability ([10]; first compound 0.253 µM): 0.581
relative viability ([10]; first compound 0.8 µM): 0.596
relative viability ([10]; first compound 2.53 µM): 0.613
relative viability ([10]; first compound 8 µM): 0.525
relative viability ([11]; first compound 0.08 µM): 0.743
relative viability ([11]; first compound 0.253 µM): 0.778
relative viability ([11]; first compound 0.8 µM): 0.733
relative viability ([11]; first compound 2.53 µM): 0.802
relative viability ([11]; first compound 8 µM): 0.686
relative viability ([13]; first compound 0.08 µM): 1.01
relative viability ([13]; first compound 0.253 µM): 0.992
relative viability ([13]; first compound 0.8 µM): 0.849
relative viability ([13]; first compound 2.53 µM): 0.98
relative viability ([13]; first compound 8 µM): 0.971
relative viability ([16]; first compound 0.08 µM): 0.229
relative viability ([16]; first compound 0.253 µM): 0.163
relative viability ([16]; first compound 0.8 µM): 0.265
relative viability ([16]; first compound 2.53 µM): 0.289
relative viability ([16]; first compound 8 µM): 0.282
relative viability ([17]; first compound 0.08 µM): 0.793
relative viability ([17]; first compound 0.253 µM): 0.733
relative viability ([17]; first compound 0.8 µM): 0.679
relative viability ([17]; first compound 2.53 µM): 0.748
relative viability ([17]; first compound 8 µM): 0.5
relative viability ([18]; first compound 0.08 µM): 1.14
relative viability ([18]; first compound 0.253 µM): 1.09
relative viability ([18]; first compound 0.8 µM): 1.03
relative viability ([18]; first compound 2.53 µM): 1.05
relative viability ([18]; first compound 8 µM): 1.09
relative viability ([19]; first compound 0.08 µM): 0.602
relative viability ([19]; first compound 0.253 µM): 0.615
relative viability ([19]; first compound 0.8 µM): 0.541
relative viability ([19]; first compound 2.53 µM): 0.537
relative viability ([19]; first compound 8 µM): 0.652
relative viability ([21]; first compound 0.08 µM): 0.46
relative viability ([21]; first compound 0.253 µM): 0.26
relative viability ([21]; first compound 0.8 µM): 0.245
relative viability ([21]; first compound 2.53 µM): 0.409
relative viability ([21]; first compound 8 µM): 0.532
relative viability ([22]; first compound 0.253 µM): 0.858
relative viability ([22]; first compound 0.8 µM): 0.777
relative viability ([22]; first compound 2.53 µM): 0.838
relative viability ([22]; first compound 8 µM): 0.879
relative viability ([23]; first compound 0.253 µM): 0.775
relative viability ([23]; first compound 0.8 µM): 0.817
relative viability ([23]; first compound 2.53 µM): 0.583
relative viability ([23]; first compound 8 µM): 0.509
